Test system: γ-Secretase
Experiment: Cell-based ELISA assay of β-AP production by transfected H4 cells expressing β-APP (Swedish variant); reported as inhibition of γ-secretase
Conditions: β-AP in conditioned medium of transfected H4 (human neuroglioma) cells by ELISA, approximately 16 hours incubation, dose response
Source text: Production and detection of β-AP made by cells in culture. The use of transfected H4 (human neuroglioma) cells stably expressing constructs containing wild-type and mutant forms of β-APP have been used to identify inhibitors of β-AP production. The Swedish variant of β-APP produces 5-7 fold more β-AP than the wild type and is typically used due to its enhanced signal. […] The capture antibody is typically a mouse monoclonal (lgG1/kβ-APPa). The antibody recognizes the carboxyl terminal epitope of β-AP. The specificity of the capture antibody ensures measurement of β-AP without interference by other secreted β-APP fragments that share amino acid sequence (β-AP1-16) with β-AP. […] In the cell-based assay conditioned medium from H4 cells is tested by ELISA for the quantity of β-AP present. […]
A typical ELISA-based assay requires plating of the transfected cells at a density sufficient for the rapid detection of the secreted β-AP (experimentally predetermined for a particular stable cell population) in a 96-well format. […] Incubation of the cells with the test agent will continue for approximately 16 hours at which time equal aliquots of media from each sample well is removed and placed into a previously prepared ELISA plate for β-AP quantitation. The ELISA is carried out in a manner described by others (Haass, et al., 1992; Hawlow and Lane, 1988) and the β-AP signal quantitated. […]

[αS-(αR*, γR*, δR*)] N-(2,2-dimethylpropyl)-γ-hydroxy-α-(1-methylethyl)-δ-[(4-methylpentyl)amino]cyclohexanehexanamide hydrochloride. [Example 31]
Activity Rating: +++ (+++ ⇐ 10)

From patent EP0778266A1, “5-Amino-6-cyclohexyl-4-hydroxy-hexanamide derivatives as inhibitors of beta-amyloid protein production” (BRISTOL-MYERS SQUIBB COMPANY, priority 1995, dated 1997)
